Source: US8802597B2, “Herbicidal pyrimidines” (E I du Pont de Nemours and Company, priority 2003, dated 2014)

Key:
Assay in all cases: Test C pre/postemergence
Type in all cases: in vivo
[1] = tested on: Surinam grass (Brachiaria decumbens); conditions: for Plant response rating, Surinam Grass: Preemergence
Method in brief: (§1)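 Percent control is a visual rating (0 none, 100 complete) taken against untreated plants after 12 to 14 days of greenhouse growth. Applications were made preemergence to seeded pots and postemergence to plants at the 1- to 4-leaf stage, in a non-phytotoxic surfactant-containing solvent.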

[2] = tested on: cocklebur (Xanthium strumarium); conditions: for Plant response rating, Cocklebur: Preemergence
Method in brief: as §1

[3] = tested on: common (oilseed) sunflower (Helianthus annuus); conditions: Preemergence
Method in brief: as §1

[4] = tested on: crabgrass (Digitaria sanguinalis); conditions: for Plant response rating, Crabgrass: Preemergence
Method in brief: as §1

[5] = tested on: giant foxtail (Setaria faberii); conditions: for Plant response rating, Foxtail, Giant: Preemergence
Method in brief: as §1

[6] = tested on: johnsongrass (Sorghum halepense); conditions: for Plant response rating, Johnsongrass: Preemergence
Method in brief: as §1

[7] = tested on: kochia (Kochia scoparia); conditions: for Plant response rating, Kochia: Preemergence
Method in brief: as §1

[8] = tested on: morningglory (Ipomoea coccinea); conditions: for Plant response rating, Morningglory: Preemergence
Method in brief: as §1

[9] = tested on: pigweed (Amaranthus retroflexus); conditions: for Plant response rating, Pigweed: Preemergence
Method in brief: as §1

[10] = tested on: velvetleaf (Abutilon theophrasti); conditions: for Plant response rating, Velvetleaf: Preemergence
Method in brief: as §1

[11] = tested on: woolly cupgrass (Eriochloa villosa); conditions: for Plant response rating, Cupgrass, Woolly: Preemergence
Method in brief: as §1

[12] = tested on: yellow nutsedge (Cyperus esculentus); conditions: for Plant response rating, Nutsedge, Yellow: Preemergence
Method in brief: as §1

[13] = 62 g ai/ha, scale 0 to 100, 0 no effect, 100 complete control
[14] = Postemergence, 125 g ai/ha, scale 0 to 100 (0 no effect, 100 complete control)
[15] = 16 g ai/ha, scale 0 to 100, 0 no effect, 100 complete control
[16] = 31 g ai/ha, scale 0 to 100, 0 no effect, 100 complete control

## CCOC(=O)Cc1nc(C2CC2)nc(N=CN(C)C)c1Br [Compound 33]
[1]; [13]
  Plant response rating, Surinam Grass: 0
[1]; 125 g ai/ha, scale 0 to 100
  Plant response rating, Surinam Grass: 0
[1]; 250 g ai/ha, scale 0 to 100
  Plant response rating, Surinam Grass: 0
[1]; 500 g ai/ha, scale 0 to 100
  Plant response rating, Surinam Grass: 10
[2]; [13]
  Plant response rating, Cocklebur: 0
[2]; 125 g ai/ha, scale 0 to 100
  Plant response rating, Cocklebur: 0
[2]; 250 g ai/ha, scale 0 to 100
  Plant response rating, Cocklebur: 90
[2]; 500 g ai/ha, scale 0 to 100
  Plant response rating, Cocklebur: 95
[3]; [13]
  Plant response rating, Sunflower: 0
[3]; 125 g ai/ha, scale 0 to 100
  Plant response rating, Sunflower: 70
[3]; 250 g ai/ha, scale 0 to 100
  Plant response rating, Sunflower: 80
[3]; 500 g ai/ha, scale 0 to 100
  Plant response rating, Sunflower: 90
[4]; [13]
  Plant response rating, Crabgrass: 0
[4]; 125 g ai/ha, scale 0 to 100
  Plant response rating, Crabgrass: 20
[4]; 250 g ai/ha, scale 0 to 100
  Plant response rating, Crabgrass: 100
[4]; 500 g ai/ha, scale 0 to 100
  Plant response rating, Crabgrass: 100
[5]; [13]
  Plant response rating, Foxtail, Giant: 0
[5]; 125 g ai/ha, scale 0 to 100
  Plant response rating, Foxtail, Giant: 10
[5]; 250 g ai/ha, scale 0 to 100
  Plant response rating, Foxtail, Giant: 50
[5]; 500 g ai/ha, scale 0 to 100
  Plant response rating, Foxtail, Giant: 50
[6]; [13]
  Plant response rating, Johnsongrass: 0
[6]; 125 g ai/ha, scale 0 to 100
  Plant response rating, Johnsongrass: 5
[6]; 250 g ai/ha, scale 0 to 100
  Plant response rating, Johnsongrass: 10
[6]; 500 g ai/ha, scale 0 to 100
  Plant response rating, Johnsongrass: 40
[7]; 250 g ai/ha, scale 0 to 100
  Plant response rating, Kochia: 50
[7]; 500 g ai/ha, scale 0 to 100
  Plant response rating, Kochia: 50
[8]; [13]
  Plant response rating, Morningglory: 0
[8]; 125 g ai/ha, scale 0 to 100
  Plant response rating, Morningglory: 85
[8]; 250 g ai/ha, scale 0 to 100
  Plant response rating, Morningglory: 90
[8]; 500 g ai/ha, scale 0 to 100
  Plant response rating, Morningglory: 95
[9]; [13]
  Plant response rating, Pigweed: 85
[9]; 125 g ai/ha, scale 0 to 100
  Plant response rating, Pigweed: 90
[9]; 250 g ai/ha, scale 0 to 100
  Plant response rating, Pigweed: 90
[9]; 500 g ai/ha, scale 0 to 100
  Plant response rating, Pigweed: 90
[10]; [13]
  Plant response rating, Velvetleaf: 0
[10]; 125 g ai/ha, scale 0 to 100
  Plant response rating, Velvetleaf: 20
[10]; 250 g ai/ha, scale 0 to 100
  Plant response rating, Velvetleaf: 60
[10]; 500 g ai/ha, scale 0 to 100
  Plant response rating, Velvetleaf: 85
[11]; [13]
  Plant response rating, Cupgrass, Woolly: 0
[11]; 125 g ai/ha, scale 0 to 100
  Plant response rating, Cupgrass, Woolly: 0
[11]; 250 g ai/ha, scale 0 to 100
  Plant response rating, Cupgrass, Woolly: 0
[11]; 500 g ai/ha, scale 0 to 100
  Plant response rating, Cupgrass, Woolly: 0
[12]; [13]
  Plant response rating, Nutsedge, Yellow: 0
[12]; 125 g ai/ha, scale 0 to 100
  Plant response rating, Nutsedge, Yellow: 0
[12]; 250 g ai/ha, scale 0 to 100
  Plant response rating, Nutsedge, Yellow: 0
[12]; 500 g ai/ha, scale 0 to 100
  Plant response rating, Nutsedge, Yellow: 0

## Nc1nc(-c2ccc(Cl)cc2)nc(C(=O)[O-])c1Cl.[Na+] [Compound 117]
[1]; Postemergence, 16 g ai/ha
  Plant response rating (scale of 0 to 100), Surinam Grass: 45
[1]; Postemergence, 31 g ai/ha
  Plant response rating (scale of 0 to 100), Surinam Grass: 50
[1]; Postemergence, 62 g ai/ha
  Plant response rating (scale of 0 to 100), Surinam Grass: 80
[1]; [14]
  Surinam Grass plant response rating: 80
[1]; [15]
  Plant response rating, Surinam Grass: 40
[1]; [16]
  Plant response rating, Surinam Grass: 40
[1]; [13]
  Plant response rating, Surinam Grass: 50
[2]; Postemergence, 16 g ai/ha
  Plant response rating (scale of 0 to 100), Cocklebur: 90
[2]; Postemergence, 62 g ai/ha
  Plant response rating (scale of 0 to 100), Cocklebur: 90
[2]; [14]
  Cocklebur plant response rating: 90
[2]; [15]
  Plant response rating, Cocklebur: 0
[2]; [16]
  Plant response rating, Cocklebur: 0
[2]; [13]
  Plant response rating, Cocklebur: 5
[2]; 125 g ai/ha, scale 0 to 100
  Plant response rating, Cocklebur: 90
[3]; [15]
  Plant response rating, Sunflower: 0
[3]; [16]
  Plant response rating, Sunflower: 50
[3]; [13]
  Plant response rating, Sunflower: 90
[4]; Postemergence, 16 g ai/ha
  Plant response rating (scale of 0 to 100), Crabgrass: 85
[4]; Postemergence, 31 g ai/ha
  Plant response rating (scale of 0 to 100), Crabgrass: 90
[4]; Postemergence, 62 g ai/ha
  Plant response rating (scale of 0 to 100), Crabgrass: 90
[4]; [14]
  Crabgrass plant response rating: 90
[4]; [15]
  Plant response rating, Crabgrass: 0
[4]; [16]
  Plant response rating, Crabgrass: 0
[4]; [13]
  Plant response rating, Crabgrass: 0
[4]; 125 g ai/ha, scale 0 to 100
  Plant response rating, Crabgrass: 60
[5]; Postemergence, 16 g ai/ha
  Plant response rating (scale of 0 to 100), Foxtail, Giant: 50
[5]; Postemergence, 31 g ai/ha
  Plant response rating (scale of 0 to 100), Foxtail, Giant: 55
[5]; Postemergence, 62 g ai/ha
  Plant response rating (scale of 0 to 100), Foxtail, Giant: 70
[5]; [14]
  Foxtail, Giant plant response rating: 80
[5]; [15]
  Plant response rating, Foxtail, Giant: 0
[5]; [16]
  Plant response rating, Foxtail, Giant: 0
[5]; [13]
  Plant response rating, Foxtail, Giant: 5
[5]; 125 g ai/ha, scale 0 to 100
  Plant response rating, Foxtail, Giant: 50
[6]; Postemergence, 16 g ai/ha
  Plant response rating (scale of 0 to 100), Johnsongrass: 10
[6]; Postemergence, 31 g ai/ha
  Plant response rating (scale of 0 to 100), Johnsongrass: 50
[6]; Postemergence, 62 g ai/ha
  Plant response rating (scale of 0 to 100), Johnsongrass: 50
[6]; [14]
  Johnsongrass plant response rating: 50
[6]; [15]
  Plant response rating, Johnsongrass: 0
[6]; [16]
  Plant response rating, Johnsongrass: 35
[6]; [13]
  Plant response rating, Johnsongrass: 60
[6]; 125 g ai/ha, scale 0 to 100
  Plant response rating, Johnsongrass: 70
[7]; Postemergence, 16 g ai/ha
  Plant response rating (scale of 0 to 100), Kochia: 90
[7]; Postemergence, 31 g ai/ha
  Plant response rating (scale of 0 to 100), Kochia: 90
[7]; Postemergence, 62 g ai/ha
  Plant response rating (scale of 0 to 100), Kochia: 90
[7]; [14]
  Kochia plant response rating: 90
[7]; [15]
  Plant response rating, Kochia: 0
[7]; [16]
  Plant response rating, Kochia: 5
[7]; [13]
  Plant response rating, Kochia: 20
[7]; 125 g ai/ha, scale 0 to 100
  Plant response rating, Kochia: 60
[8]; Postemergence, 16 g ai/ha
  Plant response rating (scale of 0 to 100), Morningglory: 20
[8]; Postemergence, 31 g ai/ha
  Plant response rating (scale of 0 to 100), Morningglory: 50
[8]; Postemergence, 62 g ai/ha
  Plant response rating (scale of 0 to 100), Morningglory: 50
[8]; [14]
  Morningglory plant response rating: 50
[8]; [15]
  Plant response rating, Morningglory: 0
[8]; [16]
  Plant response rating, Morningglory: 0
[8]; [13]
  Plant response rating, Morningglory: 5
[8]; 125 g ai/ha, scale 0 to 100
  Plant response rating, Morningglory: 50
[9]; Postemergence, 16 g ai/ha
  Plant response rating (scale of 0 to 100), Pigweed: 90
[9]; Postemergence, 31 g ai/ha
  Plant response rating (scale of 0 to 100), Pigweed: 95
[9]; Postemergence, 62 g ai/ha
  Plant response rating (scale of 0 to 100), Pigweed: 95
[9]; [14]
  Pigweed plant response rating: 95
[9]; [15]
  Plant response rating, Pigweed: 50
[9]; [16]
  Plant response rating, Pigweed: 80
[9]; [13]
  Plant response rating, Pigweed: 90
[10]; Postemergence, 16 g ai/ha
  Plant response rating (scale of 0 to 100), Velvetleaf: 60
[10]; Postemergence, 31 g ai/ha
  Plant response rating (scale of 0 to 100), Velvetleaf: 70
[10]; Postemergence, 62 g ai/ha
  Plant response rating (scale of 0 to 100), Velvetleaf: 95
[10]; [14]
  Velvetleaf plant response rating: 95
[10]; [15]
  Plant response rating, Velvetleaf: 0
[10]; [16]
  Plant response rating, Velvetleaf: 50
[10]; [13]
  Plant response rating, Velvetleaf: 65
[11]; Postemergence, 16 g ai/ha
  Plant response rating (scale of 0 to 100), Cupgrass, Woolly: 60
[11]; Postemergence, 31 g ai/ha
  Plant response rating (scale of 0 to 100), Cupgrass, Woolly: 80
[11]; Postemergence, 62 g ai/ha
  Plant response rating (scale of 0 to 100), Cupgrass, Woolly: 80
[11]; [14]
  Cupgrass, Woolly plant response rating: 85
[11]; [15]
  Plant response rating, Cupgrass, Woolly: 0
[11]; [16]
  Plant response rating, Cupgrass, Woolly: 0
[11]; [13]
  Plant response rating, Cupgrass, Woolly: 15
[11]; 125 g ai/ha, scale 0 to 100
  Plant response rating, Cupgrass, Woolly: 50
[12]; Postemergence, 16 g ai/ha
  Plant response rating (scale of 0 to 100), Nutsedge, Yellow: 5
[12]; Postemergence, 31 g ai/ha
  Plant response rating (scale of 0 to 100), Nutsedge, Yellow: 50
[12]; Postemergence, 62 g ai/ha
  Plant response rating (scale of 0 to 100), Nutsedge, Yellow: 50
[12]; [14]
  Nutsedge, Yellow plant response rating: 60
[12]; [15]
  Plant response rating, Nutsedge, Yellow: 0
[12]; [16]
  Plant response rating, Nutsedge, Yellow: 0
[12]; [13]
  Plant response rating, Nutsedge, Yellow: 50
